Experimental data published in publication PMC12692861, “Biotin-Linked Ursolic Acid Conjugates as Selective Anticancer Agents and Target-Identification Tools for Cancer Therapy” (Molecules, 2025).
Where two headings read alike, the source gives them in different places.

What was measured:
[1] = system: Eukaryotic initiation factor 4A (eIF4A); assay: Streptavidin pulldown proteomics (LC-MS/MS), 5637 cells; assay type: binding, human; conditions: 5637, 50 µM
Description: (§1) We used proteomics to identify potential molecular targets of 5c. A pulldown assay with streptavidin-agarose-coated magnetic beads was performed. Briefly, 5637 and MB49 cells were incubated with 50 µM 5c for 10 min and 1 h. After incubation, the cells were rinsed three times with cold phosphate-buffered saline (PBS), and cell lysates were prepared and clarified by centrifugation to remove cellular debris, including nuclei. The clarified lysates were incubated with streptavidin-coated magnetic beads to selectively bind biotinylated contents. Bound proteins were separated from unbound proteins through thorough bead washing. Proteins attached to the beads were eluted and analyzed on an Orbitrap Fusion Tribrid mass spectrometer (Thermo Scientific, New York, NY, USA) coupled with an Ultimate 3000 nano-UPLC system. Samples were trapped on a PepMap100 C18 trap column (5 µm, 0.3 × 5 mm) and separated on a PepMap RSLC C18 column (2 µm, 75 µm × 150 mm) using a gradient from 2 to 40% acetonitrile with 0.1% formic acid over 120 min at […] and 40 °C. MS data were acquired in positive mode using data-dependent acquisition (DDA), with precursor scans at 120,000 FWHM (400–2000 m/z), and MS/MS scans in top-speed mode (3 s cycle) using HCD fragmentation (NCE 32%). Proteins were identified and quantified based on peptide spectral matches (PSMs), and fold enrichment compared to controls was calculated to evaluate interaction strength.
(§2) The 5637 and MB49 cells were cultured and treated with higher concentrations of 5c (50 µM) for short period of times (10 min & 60 min) followed by whole cell lysis (WCL) preparation of both treated and untreated cells using modified RIPA buffer [NaCl (100mM), TrisCl (20mM, pH 7.4), EDTA (10 mM), TritonX-100 (0.5%), Glycerol (5%), Protease inhibitor cocktail (1x)] with gentle continuous rotation. The protein content of each WCL was estimated using Pierce™ BCA Protein Assay kit (Thermo-Scientific # 23225). The 100 µL of resuspended Dynabeads™ MyOne™ Streptavidin C1 (Invitrogen # 65001) were washed with PBST (PBS with 0.01% Tween™20) in a magnet stand as recommended in the manufacturer’s instructions. The washed beads were incubated with 200 µg of each WCL in separate tubes at room temperature for 2 h in a gentle end-over-end mixing. After incubation, beads were washed 3–5 times with PBST (0.01% Tween-20) on a magnetic stand and beads were decanted by after spinning and magnetization. The samples were stored at −80 °C till further analysis using LC-MS/MS by the Proteomics and Mass Spectrometry Core Laboratory of Augusta University.

[2] = system: Eukaryotic translation initiation factor 2 (eIF2); assay: as above; assay type: binding, human; conditions: 5637, 50 µM
Description: as §1, §2

DNA topoisomerase = assay: as above; assay type: binding, human; conditions: 5637, 50 µM
Description: as §1, §2

[3] = system: Coiled-coil domain-containing protein; assay: as above; assay type: binding, human; conditions: 5637, 50 µM
Description: as §1, §2

[4] = system: ATP-binding cassette sub-family A; assay: as above; parameters: species or system human; conditions: 5637, 50 µM
Description: as §1, with “MS data were acquired in positive mode using data-dependent acquisition (DDA), with precursor scans at 120,000 FWHM (400–2000 m/z), and MS/MS scans in top-speed mode (3 s cycle) using HCD fragmentation (NCE 32%).” left out, “strength. […]” for “strength.”

[5] = target: T-complex protein 1 subunit theta (Homo sapiens, UniProt P50990); assay: as above; assay type: binding; conditions: 5637, 50 µM
Chain of T-complex protein 1 subunit theta (P50990 whole entry, one chain of several): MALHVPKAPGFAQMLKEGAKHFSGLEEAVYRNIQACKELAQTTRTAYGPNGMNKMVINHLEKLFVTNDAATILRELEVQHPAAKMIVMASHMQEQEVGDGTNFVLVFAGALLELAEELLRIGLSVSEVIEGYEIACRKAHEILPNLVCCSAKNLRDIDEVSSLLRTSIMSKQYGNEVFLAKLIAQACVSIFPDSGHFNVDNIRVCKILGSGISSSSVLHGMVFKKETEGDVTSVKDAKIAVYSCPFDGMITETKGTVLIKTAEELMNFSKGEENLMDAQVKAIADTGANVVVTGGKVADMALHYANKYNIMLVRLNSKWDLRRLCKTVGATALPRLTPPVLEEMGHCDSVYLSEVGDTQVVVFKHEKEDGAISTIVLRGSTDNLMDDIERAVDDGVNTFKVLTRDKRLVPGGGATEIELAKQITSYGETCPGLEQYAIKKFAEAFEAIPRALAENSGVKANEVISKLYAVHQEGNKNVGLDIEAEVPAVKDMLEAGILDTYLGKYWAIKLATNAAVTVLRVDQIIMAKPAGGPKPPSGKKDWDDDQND
Description: as §1, §2

5637 cells [6] = assay: ROS estimation with H2DCFDA; assay type: cell-based, human; conditions: 5637, 24 h, especially at concentrations above 20 µM
Description: (§3) Since 5c was not toxic to non-tumorigenic cells, such as MCF12A and UROtsa, these cells were excluded from experiments aimed at identifying the broad mechanism of cytotoxicity. A common mechanism by which these antioxidants induce cytotoxicity in tumor cells is by generating Reactive Oxygen Species (ROS) selectively in fast-growing tumor cells. The levels of ROS generated by 5c exposed cells were evaluated with the oxidation of 2′,7′-dichlorodihydrofluorescein diacetate (H2DCFDA). It is a cell-permeant fluorescent probe used for detecting ROS production (Thermo Scientific Inc., Waltham, MA, USA). […] Figure 3 illustrates the quantification of intracellular ROS levels in four bladder cancer cell lines, 5637, T24, HT-1376, and MB49, following treatment with UA and its biotin-conjugated derivative, compound 5c.
(§4) The relative levels of intracellular ROS produced in untreated and drug-treated cells were analyzed by fluorimetry using the fluorescent probe H2DCFDA (Sigma-Aldrich, #D6883, St. Louis, MI, USA), as described previously. Briefly, cells cultured in a 96-well plate at 1 × 10^4 cells per well were treated with drugs of interest for 24 h rinsed with sterile PBS to remove excess drugs, and incubated with 10 μM DCFDA for 30 min at 37 °C and 5% CO2. Following three rinses with PBS, the fluorescence intensity was recorded at excitation: 485/20, emission: 528/20 using a BioTek Synergy HTX Multimode fluorescence plate reader (Agilent Technologies, Inc., Santa Clara, CA, USA), and the data were represented as percentage change compared to the respective untreated control.
(§5) Figure 3 Estimation of oxidative stress: Treatment with UA or 5c increased ROS levels in various bladder cancer cells. ROS levels were estimated at 24 h using DCFDA. The relative fluorescence unit (RFU) was normalized to that observed in untreated cells and expressed as a percent increase. Data are Means ± SD, (n = 4). Relative significance, expressed as p-value are calculated based on one-way ANOVA.

HT1376 cells = assay: ROS estimation with H2DCFDA; assay type: cell-based, human; conditions: HT1376, 24 h, especially at concentrations above 20 µM
Description: as §3, §4, §5

5637 cells [7] = assay: Annexin V-FITC/PI apoptosis flow cytometry; assay type: cell-based; conditions: Homo sapiens, 24 h, read-out: Q3-3 (Q3, viable) cells
Description: The potential of cells treated with UA or 5c to undergo dose-dependent apoptosis was explored using quantitative flow cytometric analysis, as shown in Figure 4. Utilizing a kit that detects quantitative binding of Annexin V to externalized phosphatidyl serine during the apoptosis cascade and permeability of Propidium iodide (PI) in cells undergoing cell death, we determined the cells at various stages of cell death following 24h incubation with UA and 5c in various bladder cancer cells.
We used a fluorescence-based Annexin V binding assay to determine the fraction of the cell population undergoing early and late apoptosis due to the cytotoxicity of the drugs. Cells plated in a 60 mm dish overnight at 0.3 × 10^6 cells/well were incubated with the selected drug at several doses for 24 h. Subsequently, treated cells were labeled with FITC-Annexin V using a kit (eBioscience™ Annexin V Apoptosis Detection Kits; Invitrogen # 88-8005-72, Thermo Fisher Scientific, Seoul, Korea) as per the manufacturer’s instructions. Intact cell suspension labeled with FITC-Annexin V and PI was run on the NovoCyte Quanteon flow cytometer, and data were acquired in list mode. Acquired data were analyzed using NovoExpress software (version 1.6.1). Cells treated with Staurosporine (0.2 µM) act as a positive control.

CC1CCC2(C(=O)OCCCCOC(=O)CCCCC3SCC4NC(=O)NC43)CCC3(C)C(=CCC4C5(C)CCC(O)C(C)(C)C5CCC43C)C2C1C [Compound 5c, 4-((5-((3aS,4S,6aR)-2-Oxohexahydro-1H-thieno [3,4-d]imidazol-4-yl)pentanoyl)oxy) butyl 3-hydroxy-urs-12-en-28-oate]
Fold Change 10 min/Ctrl [1]: 22 | Fold Change 1 h/Ctrl [1]: 19 | Fold Change 10 min/Ctrl [2]: 14 | Fold Change 1 h/Ctrl [2]: 7 | Fold Change 10 min/Ctrl (DNA topoisomerase): 0.08 | Fold Change 1 h/Ctrl (DNA topoisomerase): 0.11 | Fold Change 10 min/Ctrl [3]: 0 | Fold Change 1 h/Ctrl [3]: 2 | Fold Change 10 min/Ctrl [4]: 3 | Fold Change 1 h/Ctrl [4]: 5 | Fold Change 10 min/Ctrl [5]: 14 | Fold Change 1 h/Ctrl [5]: 12 | ROS levels (5637 cells [6]): higher levels of ROS than UA | ROS levels (HT1376 cells): higher levels of ROS than UA | viability at 10 µM (5637 cells [7]; 5637, 10 µM): 33% | viability at 15 µM (5637 cells [7]; 5637, 15 µM): 27.9%

C[C@H]1[C@H](C)CC[C@]2(C(=O)O)CC[C@]3(C)C(=CC[C@@H]4[C@@]5(C)CC[C@H](O)C(C)(C)[C@@H]5CC[C@]43C)[C@H]12 [UA, Ursolic acid]
viability at 10 µM (5637 cells [7]): 69.5% | viability at 15 µM (5637 cells [7]): 64.6%
